Patent US20110098177A1, “METHODS AND COMPOSITIONS OF PLANT MICRONUTRIENTS” (NOVUS INTERNATIONAL INC., priority 2006, published 2011)

Key:
Format in all cases: in vivo
[1] = system: Patriot bell pepper plants; assay: Marketable yield, open-field bell pepper (Examples 7-10)
Method: (§1) The following experiments were performed in open-field plots during the spring of 2008 at GCREC, Balm, University of Florida. Four products delivering Zn (BIOX-Z), Mn (BIOX-M), Cu (BIOX-Cu), and Fe (BIOX-Fe) were compared to other micronutrient supplement formulations in tomato and bell pepper plants.
(§2) The plot sizes for the tomato plants were 30-ft plots (15 plants per plot) and 15-ft plots were used for the bell pepper plants (30 plants per plot). Crop set-up, procedures and variables were as follows.
(§3) Transplants of ‘Tygress’ tomato plants and ‘Patriot’ bell pepper plants in the 4-true leaf stage (about 6 inches tall) were planted in raised beds in open-field plots. The cross-section of each raised bed was 28 inches wide at the top, 32 inches wide at the base, and 8 inches tall. Irrigation and non-micronutrient fertilizer were provided daily through two drip lines per bed (0.45 gal/100 ft bed/min) at recommended rates for tomato and bell pepper production in Florida. […] The height of the plants for each of the treatment groups was measured at 3 weeks after transplantation (WAT), just prior to treatment with the experimental foliar fertilizers.
(§4) All foliar fertilizers except BIOX-CM were applied to the various treatment groups at 3 weeks after transplantation (WAT) and again at 5 WAT. The BIOX-CM treatment was applied at 4 and 5 WAT. The working water volume was 60 gal/acre and a non-ionic surfactant (Ad-Spray 80) was added in the amount of 2 pints/100 gal water. All plots were sprayed with sprayers pressurized at 25 psi and the canopies of both crops were covered with the micronutrient solutions. Treated plots were isolated during foliar fertilizer application to avoid the cross-contamination of other treatments on adjoining plots.
(§5) Leaf samples were collected from the most recent mature leaves from each plant at 6 WAT (2 weeks after initial treatment). Foliar tissue analysis was performed by a commercial laboratory to determine the concentration of N, P, K, Mg, Ca, B, Zn, Mn, Fe, and Cu. Tomato marketable fruit weights were collected at 10 and 12 WAT, and the fruits were graded according to USDA standards. Pepper marketable fruit weights were determined beginning at 5 WAT over 5 weekly harvests. Fruit mineral analysis (N, P, K, Mg, Ca, B, Zn, Mn, Fe, and Cu) was performed on samples from the tomato harvest.
(§6) The experimental design was a randomized complete block design with 5 replications for each treatment. All comparison data were analyzed using a general linear model and the means of each treatment were separated with a Fisher's protected LSD test at the 5% significance level.

[2] = system: Tygress tomato plants; assay: Nutrient concentration of tomato fruits at 10 WAT, open field (Examples 7-10)
Method: as §1, §2, §3, §4, §5, §6

[3] = system: Tygress tomato plants; assay: Foliar nutrient concentration at 6 WAT, open-field tomato (Examples 7-10)
Method: as §1, §2, §3, §4, §5, §6

[4] = system: Patriot bell pepper plants; assay: Foliar nutrient concentration at 6 WAT, open-field bell pepper (Examples 7-10)
Method: as §1, §2, §3, §4, §5, §6

[5] = system: Florida-47 tomato; conditions: in vivo
Method: (§7) The following experiments were performed in a green house during the fall of 2007 at GCREC, Balm, University of Florida. Fifteen products, at 3 different application rates were examined. The plot size was 2-gallon pots. Crop set-up, procedures and variables were as follows.
(§8) Transplants of ‘Florida-47’ tomato and ‘Aristotle’ bell pepper plants in the 4-true leaf stage (about 6 inches tall) were planted in 2-gal pots on Aug. 27, 2007. Pots were filled with a commercially available planting medium. This medium was selected based on the mineral composition of the products to be applied without providing significant nutritional inputs to the crops. Irrigation was provided with drip lines delivering between 0.50 and 0.33 gal/day/pot for tomato and bell pepper, respectively, and the crops were irrigated three times per day. No foliar pesticides were necessary.
(§9) There were four control treatments corresponding to each target micronutrient in which non-Fe, non-Mn, non-Zn or non-Cu pots received all other essential nutrients under non-limiting conditions.
(§10) Treatments were applied at three rates (high, medium and low) obtained from the estimated concentration of Zn, Fe, Cu, and Mn foliarly-applied in tomato and bell pepper in field situations (Table 1). Products were weighed and dissolved in 200 ml of deionized water with a non-ionic surfactant and applied to the newly-matured open leaves of each crop at 3 and 7 weeks after transplant (WAT). Treated pots were isolated during application to avoid cross-contamination of other treatments.
(§11) Medium nutrient concentration was determined 1 week before treatment. The mineral composition of the medium was 26.8 ppm NH4—N, 49 ppm NO3—N, 15.8 ppm P, 91.2 ppm K, 82.3 ppm Ca, 58.2 ppm Mg, 23.9 ppm Na, 125.6 ppm S, 1.33 ppm Fe, 0.39 ppm Mn, 0.35 ppm Zn, 0.05 pp, Cu, 0.04 ppm B, 0 ppm Mo, 0.73 ppm Al, and 12.1 ppm Si. The pH of the medium was 5.36 and the electric conductivity was 1.38 mS/cm. The foliar tissue analysis was performed at 6 WAT and the concentration of N, P, K, Mg, Ca, S, B, Zn, Mn, Fe, and Cu was determined by a commercial laboratory. Plant toxicity was determined at 4 WAT by using a 0-10 visual scale, where 0=no visible damage and 10=total plant death. Marketable fruit weight was collected 2 times in bell pepper and 4 times in tomato following USDA standards.
(§12) Data were analyzed using a general linear model, and means were separated using orthogonal contrasts at the 5% significance level.

[6] = system: Aristotle bell pepper; conditions: in vivo
Method: as §7, §8, §9, §10, §11, §12

[7] = system: Tygress tomato plants; assay: Marketable yield, open-field tomato (Examples 7-10)
Method: as §1, §2, §3, §4, §5, §6

[8] = open field, lb/acre/season: BIOX-Z 1.3, Cu 6.7, M 23.0, Fe 3.2, INC 4.0, INZ 0.6, CM 10.0, GZ 1.0, GF 4.0, EDZ 1.4, EDM 23.0
[9] = 10 WAT, open field, product rate as Table 17
[10] = 6 WAT, open field, product rate as Table 17

## NCC(=O)[O-].NCC(=O)[O-].[Zn+2] [BIOX-GZ, zinc glycinate]
[1]; in vivo
  Marketable yield, Bell Pepper: 6.3 ton/acre
[2]; in vivo
  B concentration of tomato fruits: 23 ppm
  Ca concentration of tomato fruits: 0.2%
  Cu concentration of tomato fruits: 23 ppm
  Fe concentration of tomato fruits: 87 ppm
  K concentration of tomato fruits: 7.8%
  Mg concentration of tomato fruits: 0.37%
  Mn concentration of tomato fruits: 43 ppm
  N concentration of tomato fruits: 4.3%
  P concentration of tomato fruits: 0.61%
  Zn concentration of tomato fruits: 379 ppm
[3]; in vivo
  Foliar B concentration of tomato plants: 44 ppm
  Foliar Ca concentration of tomato plants: 1.8%
  Foliar Cu concentration of tomato plants: 482 ppm
  Foliar Fe concentration of tomato plants: 94 ppm
  Foliar K concentration of tomato plants: 5.0%
  Foliar Mg concentration of tomato plants: 0.61%
  Foliar Mn concentration of tomato plants: 278 ppm
  Foliar N concentration of tomato plants: 4.6%
  Foliar P concentration of tomato plants: 0.22%
  Foliar Zn concentration of tomato plants: 369 b ppm
[4]; in vivo
  Foliar B concentration of bell pepper plants: 59 ppm
  Foliar Ca concentration of bell pepper plants: 4.2%
  Foliar Cu concentration of bell pepper plants: 429 ppm
  Foliar Fe concentration of bell pepper plants: 118 ppm
  Foliar K concentration of bell pepper plants: 3.4%
  Foliar Mg concentration of bell pepper plants: 0.49%
  Foliar Mn concentration of bell pepper plants: 282 ppm
  Foliar N concentration of bell pepper plants: 4.4%
  Foliar P concentration of bell pepper plants: 0.24%
  Foliar Zn concentration of bell pepper plants: 145 a ppm
  Foliar Zn concentration of bell pepper plants compared to control, statement: significantly higher foliar concentration of Zn
[5]
  Tomato toxicity: 0
[6]
  Pepper toxicity: 0
[7]; in vivo
  Marketable yield, Tomato: 16.8 ton/acre
  Tomato marketable yield compared to control, statement: significantly higher than the control tomato harvest

## iron glycinate [BIOX-GF]
[1]; in vivo
  Marketable yield, Bell Pepper: 7.0 ton/acre
[2]; in vivo
  Nutrient concentration of tomato fruits: B: 21 ppm
  Nutrient concentration of tomato fruits: Ca: 0.2%
  Nutrient concentration of tomato fruits: Cu: 22 ppm
  Nutrient concentration of tomato fruits: Fe: 85 ppm
  Nutrient concentration of tomato fruits: K: 8.5%
  Nutrient concentration of tomato fruits: Mg: 0.38%
  Nutrient concentration of tomato fruits: Mn: 42 ppm
  Nutrient concentration of tomato fruits: N: 4.3%
  Nutrient concentration of tomato fruits: P: 0.71%
  Nutrient concentration of tomato fruits: Zn: 332 ppm
[3]; in vivo
  Foliar B concentration of tomato plants: 21 ppm
  Foliar Ca concentration of tomato plants: 0.2%
  Foliar Cu concentration of tomato plants: 22 ppm
  Foliar Fe concentration of tomato plants: 85 ppm
  Foliar K concentration of tomato plants: 8.5%
  Foliar Mg concentration of tomato plants: 0.38%
  Foliar Mn concentration of tomato plants: 42 ppm
  Foliar N concentration of tomato plants: 4.3%
  Foliar P concentration of tomato plants: 0.71%
  Foliar Zn concentration of tomato plants: 332 ppm
[4]; in vivo
  Foliar nutrient concentration: B: 43 ppm
  Foliar nutrient concentration: Ca: 1.8%
  Foliar nutrient concentration: Cu: 453 ppm
  Foliar nutrient concentration: Fe: 305 ppm
  Foliar nutrient concentration: K: 5.7%
  Foliar nutrient concentration: Mg: 0.58%
  Foliar nutrient concentration: Mn: 266 ppm
  Foliar nutrient concentration: N: 5.0%
  Foliar nutrient concentration: P: 0.21%
  Foliar nutrient concentration: Zn: 322 ppm
[5]
  Tomato toxicity: 0
[6]
  Pepper toxicity: 0
[7]; in vivo
  Marketable yield, Tomato: 18.5 a ton/acre
  Tomato marketable yield compared to control, statement: significantly higher tomato marketable yield compared to control

## manganese citrate [BIOX-CM]
[1]; [8]
  Marketable yield, Bell Pepper: 8.0 ton/acre
[2]; [9]
  B concentration of tomato fruits: 22 ppm
  Ca concentration of tomato fruits: 0.2%
  Cu concentration of tomato fruits: 21 b ppm
  Fe concentration of tomato fruits: 73 b ppm
  K concentration of tomato fruits: 7.9%
  Mg concentration of tomato fruits: 0.37%
  Mn concentration of tomato fruits: 40 b ppm
  N concentration of tomato fruits: 4.2%
  P concentration of tomato fruits: 0.57%
  Zn concentration of tomato fruits: 217 b ppm
[3]; 6 WAT, open field
  Foliar concentration of Mn of tomato plants, statement: significantly higher foliar concentration of Mn compared to control
[3]; [10]
  Foliar B concentration of tomato plants: 43 ppm
  Foliar Ca concentration of tomato plants: 1.8%
  Foliar Cu concentration of tomato plants: 326 ppm
  Foliar Fe concentration of tomato plants: 85 ppm
  Foliar K concentration of tomato plants: 5.0 b %
  Foliar Mg concentration of tomato plants: 0.66%
  Foliar Mn concentration of tomato plants: 272 b ppm
  Foliar N concentration of tomato plants: 5.1%
  Foliar P concentration of tomato plants: 0.24 a %
  Foliar Zn concentration of tomato plants: 242 b ppm
[4]; [10]
  Foliar B concentration of bell pepper plants: 63 ppm
  Foliar Ca concentration of bell pepper plants: 4.2%
  Foliar Cu concentration of bell pepper plants: 364 ppm
  Foliar Fe concentration of bell pepper plants: 121 ppm
  Foliar K concentration of bell pepper plants: 3.6%
  Foliar Mg concentration of bell pepper plants: 0.47%
  Foliar Mn concentration of bell pepper plants: 594 ppm
  Foliar N concentration of bell pepper plants: 4.3%
  Foliar P concentration of bell pepper plants: 0.23%
  Foliar Zn concentration of bell pepper plants: 44 ppm
[7]; [8]
  Marketable yield, Tomato: 13.9 b ton/acre
